Results published in PMC10812672, “Short Antimicrobial Peptide Derived from the Venom Gland Transcriptome of Pamphobeteus verdolaga Increases Gentamicin Susceptibility of Multidrug-Resistant Klebsiella pneumoniae” (Antibiotics, 2023).
Ends that are not written are not given here.

Tests used:
E. coli ATCC® 25922 [1] = assay type: cell-based, Escherichia coli; conditions: for MIC: 1.56–200 µM, visual inspection, triplicate, three independent assays; for MIC / MBC: 24 h 37 °C; for MBC: plating on Mueller-Hinton agar, absence of growth
Protocol: (§1) The nine AMPs identified in the initial screening were evaluated at concentrations between 1.56–200 µM, against E. coli ATCC® 25922, S. aureus ATCC® 29213, E. faecalis ATCC® 49532, P. aeruginosa ATCC® 9027, and K. pneumoniae ATCC® BAA-1705 (Supplementary Figures S2–S6). […] Only PvAMP66 and PvAMP172 reached the MBC for S. aureus at 50 µM and 100 µM, respectively (Table 2).
(§2) The evaluation of the antimicrobial activity of the peptides was conducted using the CLSI’s broth microdilution method for bacterial susceptibility testing. For the screening phase, peptides were evaluated at a single 30 μM concentration, in triplicate and in three independent assays, against the E. coli ATCC® 8739, E. coli ATCC® 25922, S. aureus ATCC® 6538, or S. aureus ATCC® 29213 reference USP and CLSI strains. For the determination of MIC, MBC, or IC50, peptides or antibiotics were evaluated in concentrations between 1.56–200 µM. These evaluations were conducted in triplicate and in three independent assays, against the E. coli ATCC® 25922, S. aureus ATCC® 29213, E. faecalis ATCC® 49532, P. aeruginosa ATCC® 9027, and K. pneumoniae ATCC® BAA-1705, or the clinically isolated MDR strain. In detail, 1 mL of a glycerol stock solution of the ATCC® or clinically isolated bacterial strain was added to 9 mL of Mueller-Hinton Broth and incubated for 18 h, 180 rpm and 37 °C (Incubator 1000, Heidolph Instruments, Schwabach, Germany). After the incubation, 1 mL of the previous solution was transferred to a new recipient containing 9 mL of fresh Mueller-Hinton broth and incubated for 4 h, 180 rpm and 37 °C (Incubator 1000, Heidolph Instruments, Schwabach, Germany). During the second incubation, the peptides or the antibiotics were dissolved in PBS pH 7.20 in concentrations between 19.53–2500 µM (MC5 Micro Balance, Sartorius AG, Göttingen, Germany). An amount of 10 µL of either peptide or antibiotic was dispensed in triplicate in 96-well flat bottom culture plates, along with 10 µL of PBS (Negative activity control), BTM-P1 (Positive activity control), or 10 µL of Mueller-Hinton broth (Blank); then, 110 µL of Mueller-Hinton broth was poured in all wells. Following this, the bacteria were suspended in Mueller-Hinton broth up to a concentration of approximately 1.50 × 10^8 CFU/mL, as measured by optical density at 600 nm between 0.06 to 0.11 (0.5 McFarland standard), in a Multiskan SkyHigh spectrophotometer (ThermoFisher Scientific, Waltham, MA, USA). Amounts of 5 µL of the 1.50 × 10^8 CFU/mL suspension were added to each well (except for the blank) for a final well concentration of approximately 6 × 10^6 CFU/mL. The plate was incubated for 24 h at 37 °C (BE 500, Memmert GmbH, Büchenbach, Germany) and optical density was measured at 600 nm in a Multiskan SkyHigh spectrophotometer (ThermoFisher Scientific, Waltham, MI, USA). Following the measurement of optical density, plates were visually inspected to determine the MIC. Subsequently, 100 µL of the concentration associated to the MIC and 100 µL of the next higher concentration were added to Petri dishes containing Mueller-Hinton Agar. The dishes were then incubated for 24 h at 37 °C (BE 500, Memmert GmbH, Büchenbach, Germany). After incubation, the Petri dishes were visually inspected, and the MBC was determined in the absence of growth. IC50 values were interpolated from regressions with correlation values above 0.70. Growth inhibition percentages were calculated as follows: Growth inhibition %=1−AbsPEPTIDE or ANTIBIOTIC−Median AbsBLANK/Median AbsPBS−Median AbsBLANK×100

E. coli ATCC® 8739 = assay type: cell-based, Escherichia coli; conditions: CLSI broth microdilution, Mueller-Hinton broth, peptide 30 µM, ~6 × 10^6 CFU/mL, 24 h 37 °C, OD600; triplicate, three independent assays; NA = no activity
Protocol: (§3) Activity screening was conducted using the broth microdilution method at a fixed peptide concentration of 30 µM against E. coli ATCC® 8739 and 25922, as well as S. aureus ATCC® 6538 and 29213. The bacterial density used for screening was approximately 6 × 10^6 CFU/mL [30]. Peptide activity measurements were conducted in terms of the growth inhibition percentage. No dose-response curves were generated during the screening phase as a resource optimization strategy in the initial activity evaluation. […] For S. aureus ATCC® 6538 and S. aureus ATCC® 29213, growth inhibition ranged from 0% to 140% and 0% to 98%, respectively (Table 1).
as §2

E. coli ATCC® 25922 [2] = assay type: cell-based, Escherichia coli; conditions: CLSI broth microdilution, Mueller-Hinton broth, peptide 30 µM, ~6 × 10^6 CFU/mL, 24 h 37 °C, OD600; triplicate, three independent assays; NA = no activity
Protocol: as §3, §2

S. aureus ATCC® 6538 = assay type: cell-based, Staphylococcus aureus; conditions: CLSI broth microdilution, Mueller-Hinton broth, peptide 30 µM, ~6 × 10^6 CFU/mL, 24 h 37 °C, OD600; triplicate, three independent assays; NA = no activity
Protocol: as §3, §2

S. aureus ATCC® 29213 = assay type: cell-based, Staphylococcus aureus; conditions: CLSI broth microdilution, Mueller-Hinton broth, peptide 30 µM, ~6 × 10^6 CFU/mL, 24 h 37 °C, OD600; triplicate, three independent assays; NA = no activity
Protocol: as §3, §2

P. aeruginosa ATCC® 9027 = assay type: cell-based, Pseudomonas aeruginosa; conditions: for MIC: 1.56–200 µM, 24 h 37 °C, visual inspection, triplicate, three independent assays; for MBC: plating on Mueller-Hinton agar, absence of growth
Protocol: as §1, §2

[3] = test system: multidrug-resistant (MDR) strain of K. pneumoniae, clinical isolate; test: microbe, parasite or virus in culture; assay type: cell-based, Klebsiella pneumoniae; conditions: for inhibition at 100 µM: read-out: maximum growth inhibition
Protocol: A multidrug-resistant (MDR) strain of K. pneumoniae was identified and isolated from a tertiary-level hospital in Medellin, Colombia, using the VITEK-2 system (bioMérieux, Marcy-l’Étoile, France). The MDR strain was evaluated against several antibiotics at concentrations of 1.56–100 μM. […] In contrast, the strain was susceptible to doxycycline (Supplementary Figure S7g) and chloramphenicol (Supplementary Figure S7h), with MICs of 50 μM and 100 µM, respectively (Table 3). […] All of P. verdolaga’s AMPs were evaluated against the clinical isolate at concentrations of 1.56–200 µM (Supplementary Figure S8). […] A growth inhibition kinetic assay was conducted. […] All of P. verdolaga’s peptides at 100 μM induced morphological changes in the MDR K. pneumoniae, indicating membrane interactions, even though no significant inhibition was observed (Supplementary Figure S9).
as §2, with “Growth inhibition percentages were calculated as follows: Growth inhibition %=1−AbsPEPTIDE or ANTIBIOTIC−Median AbsBLANK/Median AbsPBS−Median AbsBLANK×100” left out

With “YRARCVIYC-NH2 (disulfide) [PvAMP69, predicted P. verdolaga AMP]” the MIC (E. coli ATCC® 25922 [1]) was 200 µM, the MBC (E. coli ATCC® 25922 [1]) was 200 µM and the inhibition (E. coli ATCC® 8739) was 1.75 ± 9.78%. For the same molecule, the “E. coli ATCC® 25922 (Inhibition %)” value (E. coli ATCC® 25922 [2]) was 19.08 ± 0.12 %, the “S. aureus ATCC® 6538 (Inhibition %)” value (S. aureus ATCC® 6538) was 32.32 ± 7.00 % and the “S. aureus ATCC® 29213 (Inhibition %)” value (S. aureus ATCC® 29213) was 29.81 ± 3.31 %.
ILKPFMLRR-NH2 [PvAMP84] was tested, and the “E. coli ATCC® 8739 (Inhibition %)” value (E. coli ATCC® 8739) was 24.29 ± 6.74 % and the inhibition (E. coli ATCC® 25922 [2]) was 11.3 ± 3.72%.
FLGKNLG-NH2 [PvAMP15] was tested, and the “S. aureus ATCC® 6538 (Inhibition %)” value (S. aureus ATCC® 6538) was 43.62 ± 10.56 % and the inhibition (S. aureus ATCC® 29213) was 27.5 ± 29.7%.
“RSVLKAHCRICRRRG-NH2 (disulfide) [PvAMP164, predicted P. verdolaga AMP]” was tested, and the MIC (P. aeruginosa ATCC® 9027) was 100 µM, the MBC (P. aeruginosa ATCC® 9027) was 100 µM and the MIC (E. coli ATCC® 25922 [1]) was 200 µM. For the same molecule, the MBC (E. coli ATCC® 25922 [1]) was 200 µM, the “E. coli ATCC® 8739 (Inhibition %)” value (E. coli ATCC® 8739) was 20.51 ± 4.31 % and the “E. coli ATCC® 25922 (Inhibition %)” value (E. coli ATCC® 25922 [2]) was 30.10 ± 3.90 %. The “S. aureus ATCC® 6538 (Inhibition %)” value (S. aureus ATCC® 6538) was 24.49 ± 10.18 % and the “S. aureus ATCC® 29213 (Inhibition %)” value (S. aureus ATCC® 29213) was 12.25 ± 1.29 %.
“CRRVCYKNR CVTYCRG (disulfide) [PvAMP169, predicted P. verdolaga AMP]” was tested, and the inhibition (E. coli ATCC® 8739) was 13.6 ± 5.92% and the “E. coli ATCC® 25922 (Inhibition %)” value (E. coli ATCC® 25922 [2]) was 55.69 ± 4.65 %.
With LLSKIFG-NH2 [PvAMP16] the “S. aureus ATCC® 6538 (Inhibition %)” value (S. aureus ATCC® 6538) was 42.06 ± 4.29 % and the inhibition (S. aureus ATCC® 29213) was 13.8 ± 6.48%.
In the case of `O=C(N[C@H](CO)[C@H](O)c1ccc([N+](=O)[O-])cc1)C(Cl)Cl` [Chloramphenicol, chloramphenicol], the IC50 ([3]; Klebsiella pneumoniae) is reported as 56.2 µM, the MIC ([3]; Klebsiella pneumoniae, 24 h, MDR K. pneumoniae clinical isolate, peptides 1.56–200 µM, antibiotics 1.56–100 µM, 24 h 37 °C) is reported as 100 µM and the MIC ([3]; Klebsiella pneumoniae, MDR K. pneumoniae clinical isolate) is reported as 4.04 µg/mL. The “Classification at 10^6 CFU/mL” value ([3]; MDR K. pneumoniae clinical isolate, CLSI classification) was “Susceptible”.
`CN(C)[C@@H]1C(O)=C(C(N)=O)C(=O)[C@@]2(O)C(O)=C3C(=O)c4c(O)cccc4[C@@](C)(O)[C@H]3[C@H](O)[C@@H]12` [oxytetracycline] was tested, and the inhibition at 100 µM ([3]; Klebsiella pneumoniae) was ≤ 20%.
LLTGIKS-NH2 [PvAMP30] was tested, and the “S. aureus ATCC® 6538 (Inhibition %)” value (S. aureus ATCC® 6538) was 35.52 ± 7.29 % and the inhibition (S. aureus ATCC® 29213) was 7.34 ± 10.3%.
For “QCRKLCFRNRCLTYCRGRG-NH2 (disulfide (positions not given here)) [PvAMP183, predicted P. verdolaga AMP]”, the MIC (P. aeruginosa ATCC® 9027) was 50 µM, the IC50 (P. aeruginosa ATCC® 9027; growth inhibition OD600, 95% confidence interval in parentheses) was 48.3 µM and the MBC (P. aeruginosa ATCC® 9027) was 100 µM. The MIC (E. coli ATCC® 25922 [1]) was 25 µM, the IC50 (E. coli ATCC® 25922 [1]; growth inhibition OD600, interpolated from regression, 95% confidence interval in parentheses, read-out: IC50) was 26.9 µM and the MBC (E. coli ATCC® 25922 [1]) was 50 µM. The “E. coli ATCC® 8739 (Inhibition %)” value (E. coli ATCC® 8739) was 48.26 ± 2.41 %, the “E. coli ATCC® 25922 (Inhibition %)” value (E. coli ATCC® 25922 [2]) was 64.66 ± 1.26 % and the “S. aureus ATCC® 6538 (Inhibition %)” value (S. aureus ATCC® 6538) was 47.36 ± 1.27 %. It also gave an inhibition (S. aureus ATCC® 29213) of 4.71 ± 21.9%.
In the case of `[H]/N=C(/N)N[C@H]1[C@H](O)[C@@H](O)[C@H](O[C@@H]2O[C@@H](C)[C@](O)(C=O)[C@H]2O[C@@H]2O[C@@H](CO)[C@H](O)[C@@H](O)[C@@H]2NC)[C@@H](N/C(N)=N\[H])[C@@H]1O` [streptomycin], the inhibition at 100 µM ([3]; Klebsiella pneumoniae) is reported as ≤ 20%.
In the case of SLWGMWR-NH2 [PvAMP7], the MIC (E. coli ATCC® 25922 [1]) is reported as 200 µM, the “E. coli ATCC® 8739 (Inhibition %)” value (E. coli ATCC® 8739) is reported as 26.74 ± 0.68 % and the “E. coli ATCC® 25922 (Inhibition %)” value (E. coli ATCC® 25922 [2]) is reported as 18.21 ± 2.54 %. For the same molecule, the “S. aureus ATCC® 6538 (Inhibition %)” value (S. aureus ATCC® 6538) was 37.89 ± 1.50 % and the “S. aureus ATCC® 29213 (Inhibition %)” value (S. aureus ATCC® 29213) was 23.66 ± 3.34 %.
`Cc1onc(-c2c(Cl)cccc2Cl)c1C(=O)N[C@@H]1C(=O)N2[C@@H]1SC(C)(C)[C@@H]2C(=O)O` [dicloxacillin] was tested, and the inhibition at 100 µM ([3]; Klebsiella pneumoniae) was ≤ 20%.
In the case of FSGNKLLPG-NH2 [PvAMP81], the inhibition (E. coli ATCC® 8739) is reported as 8.57 ± 4.46% and the “E. coli ATCC® 25922 (Inhibition %)” value (E. coli ATCC® 25922 [2]) is reported as 31.88 ± 2.18 %.
With SLFKFLA-NH2 [PvAMP8] the “S. aureus ATCC® 6538 (Inhibition %)” value (S. aureus ATCC® 6538) was 47.95 ± 3.62 % and the inhibition (S. aureus ATCC® 29213) was 11.9 ± 8.93%.
